From publication PMC10630842, “Impact of dietary plant flavonoids on 7,8‐dihydroxyflavone transepithelial transport in human intestinal Caco‐2 cells” (Food Science & Nutrition, 2023)
Values joined by “and” are separate entries in the source; they are usually repeats but may differ in a detail not shown here. Identical values can stand only once. Values belong to the compound of their own block, whether it stands above or below them.

How the values were obtained:
Caco‐2 monolayers = test: Bi-directional transepithelial transport of 7,8-DHF across Caco-2 monolayers with flavonoids screened as P-gp inhibitors (Papp, ER); assay type: in vitro ADME, human; conditions: for Modulatory effect on 7,8‐DHF transport: flavonoid equimolar with 7,8‐DHF 10 μmol/L; as to Modulatory effect on 7,8‐DHF transport: key: + indicates that the inhibitor has a significant effect on 7,8‐DHF transport; − indicates that the inhibitor has no significant effect on 7,8‐DHF transport
Protocol: (§1) For this experiment, the 7,8‐DHF sample was first dissolved in a small amount of dimethyl sulfoxide (DMSO) and then diluted with HBSS to a working concentration of 10 μmol/L. The final DMSO concentration in the working solution was controlled to be less than 0.5%. […] Flavonoid samples were added to the AP and BL sides at equimolar concentrations with 7,8‐DHF (the sample concentration in HBSS solution was 10 μmol/L). Prior to transport, dietary flavonoids were pretreated on the AP side for 30 min. Then, these flavonoid reagents were removed, and a 0.5 mL HBSS solution containing various dietary flavonoids with 7,8‐DHF (concentration of 10 μmol/L) was added to the AP side, while 1.5 mL of blank HBSS was added to the BL side. Conversely, 1.5 mL of HBSS solution containing various dietary flavonoids with 7,8‐DHF (10 μmol/L) was added to the BL side, and 0.5 mL of blank HBSS was added to the AP side.
(§2) The magnitude of the apparent permeability coefficients (P app, cm/s) and efflux ratio (ER) reflects the ability of the test substance to pass through the monolayer cells and the speed of absorption.
(§3) (4) ER=PappAB/PappBA where P app AB is the apparent permeability coefficient for AP → BL transport, and P app BA is the apparent permeability coefficient for BL → AP transport.
(§4) Effect of different concentrations of specific flavonoids on 7,8‐DHF transepithelial transport was investigated. The operating procedure was followed by above section, with the exception that specific dietary flavonoid samples were added to the AP and BL sides at varying molar ratios with 7,8‐DHF (2:1, 1:1, 1:2, and 1:4). The specific dietary flavonoids were dissolved in HBSS while controlling the DMSO concentration to be less than 0.5%.

in vitro = in vitro ADME, human; conditions: human, Caco-2
Protocol: as §1, §2, §3, §4

Caco‐2 cells [1] = test: Cytotoxicity, CCK-8 assay; assay type: cell-based, human; conditions: 24 h
Protocol: To determine the cytotoxicity of 7,8‐DHF for transport experiments, a CCK‐8 assay was carried out (Han et al., [2023]). A total of 200 μL culture medium containing Caco‐2 cells at a density of 3 × 10^4 cells/mL was seeded in a 96‐well plate and incubated for 24 h to allow for adherence. After the incubation period, the culture medium was removed and replaced with 200 μL fresh medium containing 7,8‐DHF at concentrations of 1, 10, 50, 100, and 300 μmol/L. Additionally, 200 μL medium without 7,8‐DHF was added as the control group, while medium without cells was used as the blank group. Following 24 h of drug stimulation, 10 μL CCK‐8 reagent was added to each well followed by another 2 h incubation. The absorbance was measured at 450 nm wavelength using an enzyme‐linked immunosorbent assay reader (Eonmei, BioTek). Each sample was repeated five times, and the cell survival rate was calculated using the following formula: (2) Cell survival rate%=ODsample group−ODblank group/ODcontrol group−ODblank group×100 where OD represents the absorbance of each sample at 450 nm wavelength.

Caco‐2 cells [2] = test: Uptake amount of 7,8-DHF in Caco-2 cells at the end of transport; assay type: in vitro ADME, human
Protocol: The cell surface was rapidly washed three times with ice-cold HBSS solution. The cells were harvested using a cell scraper and resuspended in 1.0 mL of 0.1% extraction solution (phosphate: methanol = 1:1, v/v) before being homogenized in an ultrasonicator.

[3] = parameters: method as in Liu et al., 2013; conditions: C57BL/6 mice, ref Liu et al., 2013; cited from earlier work
[4] = Stability (recovery) of 7,8-DHF in Caco-2 cells with or without inhibitors; conditions: human, Caco-2, pH 7.4
Protocol: (§5) Simultaneously, 0.5 mL of the aforementioned solution was added to the AP side of the Transwell culture plate containing Caco‐2 cells, while 1.5 mL of blank HBSS added to the BL side. […] The Caco‐2 cell stability test was performed under both inhibitory and non‐inhibitory conditions, and the 7,8‐DHF content in the samples was determined.
(§6) A volume of 200 μL of receiving solution was transferred into a 1 mL centrifuge tube, followed by adding 10 μL of internal standard solution (10 μg/mL apigenin) and 200 μL of methanol. […] Thereafter, 5 μL of the supernatant was injected into the UPLC system. The UPLC system used in this study was a Waters ACQUITY UPLC H‐CLASS series instrument (Waters) equipped with a quaternary solvent manager, a sample manager‐flow through needle, a chromatographic column heater and a PDA eλ detector. […] The mobile phase comprised of methanol (solvent A) and 0.05% trifluoroacetic acid of ultrapure water (solvent B). The gradient elution program was as follows: 20% solvent A (0~1 min), 20%~80% solvent A (1~5 min), 80%~100% solvent A (5~7 min), 100 ~ 20% solvent A (7~8 min), and 20% solvent A (8~9 min). The flow rate maintained at 0.2 mL/min, the temperature was set to 37°C, and the PDA detector wavelength was set at 330 nm.

Caco‐2 cells [5] = test: as above; conditions: 60 and 240 min incubation
Protocol: as §5, §6

[6] = parameters: method as in Xiao and Högger (2015); conditions: DMEM solutions during Caco‐2 cell incubation; ref Xiao and Högger (2015); cited from earlier work
[7] = Stability of 7,8-DHF in HBSS; assay type: physicochemical; conditions: HBSS pH 7.4, 37°C, 10 μmol/L
Protocol: as §5, §6

[8] = In vitro digestion stability of 7,8-DHF (simulated saliva, gastric fluid, intestinal fluid); assay type: in vitro ADME; conditions: 7,8‐DHF combined with the named flavonoid
Protocol: The in vitro digestion model proposed by Versantvoort et al.'s report was modified as follows (Versantvoort et al., [2005]): […] The pH of the system was then adjusted to 7.5 and simulated intestinal fluid containing pancreatin and bile salts was added for 2 h of stirring. During the process, a certain amount of the digested liquid sample from the simulated saliva, gastric fluid, and intestinal fluid were taken, and ethanol was added to precipitate and inactivate the enzymes. […] A 1 mL aliquot was placed in a high-speed centrifuge tube (3K15, Sigma) and centrifuged at 4°C, 11000 × g for 15 min.

[9] = human, Caco-2, 150 min, 10 μmol/L

SMILES: COc1ccc(-c2coc3cc(O)cc(O)c3c2=O)cc1 [Biochanin A, biochanin A]
Modulatory effect on 7,8‐DHF transport (Caco‐2 monolayers; verapamil 100 μmol/L): −

Papp A→B at 150 min, 10 μmol/L (in vitro): 1.19 ± 0.08 ×10⁻⁶ cm/s
Papp B→A at 150 min, 10 μmol/L (in vitro): 1.91 ± 0.13 ×10⁻⁶ cm/s
efflux ratio at 150 min, 10 μmol/L (in vitro): 1.61
Uptake amount of 7,8‐DHF in Caco‐2 cells (Caco‐2 cells [2]; control, 7,8‐DHF without inhibitor, end of 150 min transport): 0.378 ± 0.018 nmol/mg protein
recovery at 60 min, 10 μmol/L [4]: 99.11 ± 0.57%
recovery at 240 min, 10 μmol/L [4]: 97.74 ± 0.42%
Metabolism of 7,8‐DHF in Caco‐2 cells (recovery vs blank HBSS) (Caco‐2 cells [5]): not metabolized
Recovery of 7,8-DHF ([7]; 60 min): 98.71±1.07%
Recovery of 7,8-DHF ([7]; 240 min): 97.26±2.17%
SMILES: O=c1cc(-c2ccccc2)oc2c(O)c(O)ccc12 [7,8‐DHF, 7,8‐Dihydroxyflavone]
Cell toxicity toward Caco‐2 cells (CCK‐8) (Caco‐2 cells [1]; 300 μmol/L): certain cell toxicity
Cell toxicity toward Caco‐2 cells (CCK‐8) (Caco‐2 cells [1]; concentration range 1~100 μmol/L): no significant cell toxicity
Oral bioavailability [3]: 4.6%
Half‐degradation time [6]: above 180 min

Uptake amount of 7,8‐DHF in Caco‐2 cells with the named flavonoid (Caco‐2 cells [2]; molar concentration ratio flavonoid to 7,8‐DHF 1:2): did not increase the uptake
Uptake amount of 7,8‐DHF in Caco‐2 cells with the named flavonoid (Caco‐2 cells [2]; molar concentration ratio flavonoid to 7,8‐DHF 4:1): did not increase the uptake
Effect of combined flavonoid on retention of 7,8‐DHF in simulated in vitro digestion [8]: no significant effects were observed
SMILES: O=c1c(O)c(-c2ccc(O)c(O)c2)oc2cc(O)cc(O)c12 [Quercetin, quercetin]
Modulatory effect on 7,8‐DHF transport (Caco‐2 monolayers; verapamil 100 μmol/L): +

SMILES: O=c1cc(-c2ccc(O)c(O)c2)oc2c([C@@H]3O[C@H](CO)[C@@H](O)[C@H](O)[C@H]3O)c(O)cc(O)c12 [Orientin]
Modulatory effect on 7,8‐DHF transport (Caco‐2 monolayers; verapamil 100 μmol/L): −

ER of 7,8‐DHF in presence of the named inhibitor (Caco‐2 monolayers; 7,8‐DHF 10 μmol/L, flavonoid equimolar (1:1, 10 μmol/L), verapamil 100 μmol/L): 1.34
P app AB of 7,8‐DHF in presence of the named inhibitor (Caco‐2 monolayers; 7,8‐DHF 10 μmol/L, flavonoid equimolar (1:1, 10 μmol/L), verapamil 100 μmol/L, AP → BL, 150 min): 1.21 ± 0.03 ×10^−6 cm/s
ER of 7,8‐DHF in presence of the named inhibitor (Caco‐2 monolayers; 7,8‐DHF 10 μmol/L, flavonoid equimolar (1:1, 10 μmol/L), verapamil 100 μmol/L, listed as epigallocatechin gallate): less than 1.5
SMILES: O=C(O[C@@H]1Cc2c(O)cc(O)cc2O[C@@H]1c1cc(O)c(O)c(O)c1)c1cc(O)c(O)c(O)c1 [EGCG, epigallocatechin gallate]
P app BA of 7,8‐DHF in presence of the named inhibitor (Caco‐2 monolayers; 7,8‐DHF 10 μmol/L, flavonoid equimolar (1:1, 10 μmol/L), verapamil 100 μmol/L, BL → AP, 150 min): 1.63 ± 0.05 ×10^−6 cm/s and 1.62 ± 0.05 ×10^−6 cm/s
Modulatory effect on 7,8‐DHF transport (Caco‐2 monolayers; verapamil 100 μmol/L): +

SMILES: O=c1cc(-c2ccc(O)cc2)oc2c([C@@H]3O[C@H](CO)[C@@H](O)[C@H](O)[C@H]3O)c(O)cc(O)c12 [Vitexin, vitexin]
Modulatory effect on 7,8‐DHF transport (Caco‐2 monolayers; verapamil 100 μmol/L): −
P app AB of 7,8‐DHF in presence of the named inhibitor (Caco‐2 monolayers; [9]): 1.14 ± 0.16 ×10^−6 cm/s
P app BA of 7,8‐DHF in presence of the named inhibitor (Caco‐2 monolayers; [9]): 1.94 ± 0.03 ×10^−6 cm/s
Uptake amount of 7,8‐DHF in Caco‐2 cells after treatment with the named inhibitor (Caco‐2 cells [2]; flavonoid: 7,8‐DHF 1:1 (equimolar), verapamil 100 μmol/L, end of 150 min transport): significant decrease

SMILES: O=c1cc(-c2ccccc2)oc2cc(O)c(O)c(O)c12 [Baicalein, baicalein]
Modulatory effect on 7,8‐DHF transport (Caco‐2 monolayers; verapamil 100 μmol/L): +
ER of 7,8‐DHF in presence of the named inhibitor (Caco‐2 monolayers; [9]): 1.59

SMILES: O=c1c(O)c(-c2cc(O)c(O)c(O)c2)oc2cc(O)cc(O)c12 [Myricetin, myricetin]
Modulatory effect on 7,8‐DHF transport (Caco‐2 monolayers; verapamil 100 μmol/L): +

SMILES: O=c1c(-c2ccc(O)cc2)coc2cc(O)cc(O)c12 [Genistein, genistein]
Modulatory effect on 7,8‐DHF transport (Caco‐2 monolayers; verapamil 100 μmol/L): +

Effect of combined flavonoid on retention of 7,8‐DHF in simulated in vitro digestion [8]: no significant effects were observed
SMILES: O=c1c(O)c(-c2ccc(O)cc2)oc2cc(O)cc(O)c12 [Kaempferol, kaempferol]
Modulatory effect on 7,8‐DHF transport (Caco‐2 monolayers; verapamil 100 μmol/L): +

SMILES: O=c1cc(-c2ccc(O)c(O)c2)oc2cc(O)c([C@@H]3O[C@H](CO)[C@@H](O)[C@H](O)[C@H]3O)c(O)c12 [Isoorientin, isoorientin]
Modulatory effect on 7,8‐DHF transport (Caco‐2 monolayers; verapamil 100 μmol/L): +

SMILES: O=c1cc(-c2ccc(O)cc2)oc2cc(O)c([C@@H]3O[C@H](CO)[C@@H](O)[C@H](O)[C@H]3O)c(O)c12 [Isovitexin, isovitexin]
Modulatory effect on 7,8‐DHF transport (Caco‐2 monolayers; verapamil 100 μmol/L): +
ER of 7,8‐DHF in presence of the named inhibitor (Caco‐2 monolayers; [9]): 1.55
P app AB of 7,8‐DHF in presence of the named inhibitor (Caco‐2 monolayers; [9]): 1.27 ± 0.08 ×10^−6 cm/s
P app BA of 7,8‐DHF in presence of the named inhibitor (Caco‐2 monolayers; [9]): 1.97 ± 0.11 ×10^−6 cm/s

P app AB of 7,8‐DHF in presence of the named inhibitor (Caco‐2 monolayers; [9]): 1.16 ± 0.02 ×10^−6 cm/s
P app BA of 7,8‐DHF in presence of the named inhibitor (Caco‐2 monolayers; [9]): 1.88 ± 0.11 ×10^−6 cm/s
SMILES: O=C1C[C@@H](c2ccc(O)cc2)Oc2cc(O)cc(O)c21 [Naringenin, naringenin]
Modulatory effect on 7,8‐DHF transport (Caco‐2 monolayers; verapamil 100 μmol/L): −

SMILES: O=c1c(O)c(-c2ccc(O)c(O)c2)oc2cc(O)ccc12 [Fisetin, fisetin]
Modulatory effect on 7,8‐DHF transport (Caco‐2 monolayers; verapamil 100 μmol/L): +
